According to US20230263766A1, “CANNABINOID-CONTAINING FORMULATIONS FOR PARKINSONIAN MOVEMENT DISORDERS” (GBS Global BioPharma, Inc., priority 2021, published 2023):

How the values were obtained:
[1] = tested on: differentiated PC12 cells; assay: In vitro dopamine-release assay (Dopamine ELISA); format: cell-based, rat; settings: 10 µM of each compound; 30 mins; normalized to PMA/Ionomycin control; mean +/- SD
Method: (§1) Cell lines used were from ATCC. Cath.a cells (sp. = mouse, cat# CRL-11179, ATCC, Manassas, Virginia, US), a CNS catecholaminergic cell line, were cultured according to ATCC instructions and were induced to CAD differentiated status by serum deprivation (0.5% FBS culture for 36 h) prior to experiments as described (Qi et al., 1997, Neurosci, 17, 1217-25). PC12 (sp. = rat, ATCC #CRL-1721) were cultured in RPMI 10% FBS. PC12 differentiation used Minimal Essential M medium containing 1% HS and 0.5% FBS, then the cells were treated with 100 ng/ml NGF, 100 ng/ml basic fibroblast growth factor (bFGF), and serum-starved media containing 2 mg/ml BSA for 2 days (Joen et al., 2010. Synapse, 64, pgs 765-72).
In parallel with the neuroprotection assays, cannabinoid and terpene compounds were tested alone and in mixtures to determine their effects on dopamine release from differentiated PC12 cells. PC12 cells were differentiated as in (Joen et al., 2010. Synapse, 64, pgs 765-72; Hu et al., 2018, Int J Mol Med, 41, 195-201). Supernatant samples were collected from 3 replicate wells 30 mins after application of PMA/Ionomycin (positive control) or the indicated compounds, and dopamine was measured in the medium using the Dopamine ELISA Kit #KA1887 from Abnova (Abnova, California, US) according to manufacturer’s instructions. […]

Cath.a cells = assay: In vitro neuroprotection assay (MPTP/MPP+ cytotoxicity, MTT cell viability); format: cell-based, mouse
Method: as §1
Neuroprotective effects were assessed based on the ability of both individual compounds and mixtures of compounds to protect against neuronal cell death induced by 1-methyl-4-phenylpyridinium (MPP+) in the 1-methyl-4-phenyl-1,2,3,6-tetrahydropyridine (MPTP)-based selective cytotoxicity assay (Arshad et al., 2014, Acta Biochim Biophys Sin (Shanghai), 46, 22-30). MPP+ is an active metabolite of MPTP that is known to cause human Parkinsonism after injection. […] Cell viability was assessed 24 h after exposure to MPP, which is […] after exposure to the tested compound or compound mixture. […]

zebrafish larvae = assay: Validation of the larval zebrafish OHDA model; format: in vivo
Method: All compounds were diluted in 100% methanol (MeOH) and experiments were performed in a HEPES buffered E3 (HE3) medium (5 mM NaCl, 0.17 mM KCl, 0.33 mM CaCl2-2H2O, 0.33 mM MgSO4-7H2O, 10 mM HEPES, pH 7.2). Individual 120 hours post fertilization (hpf) larval zebrafish were transferred to a 48-well microtiter plate in 500 µL of HE3 media. Larvae were acclimated for at least one hour in a lighted 28.5° C. incubator (photon flux: 3-5 µmol s-1 m2) prior to experimentation and larval behavior was analyzed using DanioVision larval tracking systems with EthoVisionXT14/15 software (Noldus Information Technology Inc., Virginia, USA). Distance traveled was measured using dynamic subtraction at 28.5° C. over 120 minutes with the first 90 minutes under lighted conditions (15 µmol m-2 s-1), followed by alternating 5-minute dark/light cycles. Each larvae represents an independent measurement. […] 12 larvae were used in each experimental condition, and at least 2 replicates of each concentration were performed.
Larvae were exposed to varying concentrations of 6-hydroxydopamine (OHDA) from 48-120 hours post fertilization (hpf). 15 dechorionated larvae were transferred in 5 mL of HE3 to each well of a six-well plate. The 5 mL exposure media was replaced daily, and ascorbic acid/saline buffer (used to resuspend OHDA) was used as a vehicle control. Larvae were then loaded into 48-well microtiter plate in 500 µL of HE3 media as described above.
In addition to distance travelled, activity was measured as a percentage change in pixel density during data acquisition. […] The frequency with which larvae switched between activity states and the cumulative duration of time spent in each activity state was then measured. Metrics were captured in 1 min bins, and the average over 90 minutes was used to calculate each metric in each activity state. For frequency calculations, the number of times larvae switched between activity states (high, moderate, and low) was calculated (termed Total Frequency). The cumulative amount of time spent in the high and moderate activity states combined (termed Cumulative Duration) was averaged over 90 minutes and measured as a percentage.

CCCCCc1cc(O)c2c(c1)OC(C)(C)c1ccc(C)cc1-2 [CBN, Cannabinol]
DOPA release [1]: 8.1 +/- 0.4%

CCCCCc1cc(O)c2c(c1)OC(C)(CCC=C(C)C)C=C2 (centres unmarked) [CBC, Cannabichromene]
neuroprotective effect of individual compounds (Cath.a cells; 10 µM, MPTP/MPP+ induced apoptosis): all of the individual cannabinoids except CBC displayed some neuroprotective effects

C=C(C)[C@@H]1CCC(C)=C[C@H]1c1c(O)cc(CCCCC)cc1O [CBD, Cannabidiol]
effect of adding a major cannabinoid to MIX-1, MIX-2, MIX-3 on cell survival (Cath.a cells; 10 µM each, equimolar): increased cell survival in all three mixtures | DOPA release [1]: 6.0 +/- 0.3%

NCCc1cc(O)c(O)cc1O [OHDA, 6-hydroxydopamine]
startle response (zebrafish larvae; 150 µM OHDA): not impacting the startle response | maximum response to the light/dark transition (startle response) (zebrafish larvae; 225 µM OHDA): non-significant increase in the maximum response to the light/dark transition | baseline activity during initial 90-minute period in the light (zebrafish larvae; OHDA exposure 48-120 hpf): concentration-dependent decrease in the baseline activity | fraction of time in high activity (zebrafish larvae; OHDA treated larvae): 1% | fraction of time in moderate activity (zebrafish larvae; OHDA treated larvae): 5% | fraction of time in the inactive state (zebrafish larvae; OHDA treated larvae): ~ 90% | reduction in activity state transitions for all three states (zebrafish larvae; OHDA treatment vs untreated): 50-60%
